According to PubChem BioAssay AID330 (DTP/NCI, 2004):
Several values for one entry are separate records, joined by “and”; a condition that tells them apart may be missing. Equal entries are not always repeated. Inconclusive results and toxic doses are left out. How the source made its calls: active means survival T/C of 150% or more; inactive means T/C below 125% in these data.

System: P388 leukemia ip, CD2F1 mice, survival T/C
Assay: NCI In Vivo Anticancer Drug Screen. Data for tumor model P388 Leukemia (intraperitoneal) in CD2F1 (CDF1) mice
Settings: endpoint: median survival time, higher = longer survival
Outline: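 Mice carrying the transplanted tumor received test compound or vehicle. Survival was recorded in each group, and the value is the treated-group measurement divided by that of the vehicle-treated control group.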

[1] = dose: 100.0 mg/kg/injection, schedule: Q01DX001 (ip), vehicle: Klucel (hydroxypropylcellulose) (HPC)
[2] = dose: 200.0 mg/kg/injection, schedule: Q01DX001 (ip), vehicle: Klucel (hydroxypropylcellulose) (HPC)
[3] = dose: 400.0 mg/kg/injection, schedule: Q01DX001 (ip), vehicle: Klucel (hydroxypropylcellulose) (HPC)
[4] = dose: 60.0 mg/kg/injection, schedule: Q01DX005 (ip), vehicle: Klucel (hydroxypropylcellulose) (HPC)
[5] = dose: 120.0 mg/kg/injection, schedule: Q01DX005 (ip), vehicle: Klucel (hydroxypropylcellulose) (HPC)
[6] = dose: 240.0 mg/kg/injection, schedule: Q01DX005 (ip), vehicle: Klucel (hydroxypropylcellulose) (HPC)
[7] = dose: 25.0 mg/kg/injection, schedule: Q01DX005 (ip), vehicle: saline
[8] = dose: 50.0 mg/kg/injection, schedule: Q01DX005 (ip), vehicle: saline
[9] = dose: 100.0 mg/kg/injection, schedule: Q01DX005 (ip), vehicle: saline
[10] = dose: 200.0 mg/kg/injection, schedule: Q01DX005 (ip), vehicle: saline
[11] = dose: 60.0 mg/kg/injection, schedule: Q01DX005 (ip), vehicle: saline with Tween-80
[12] = dose: 120.0 mg/kg/injection, schedule: Q01DX005 (ip), vehicle: saline with Tween-80
[13] = dose: 240.0 mg/kg/injection, schedule: Q01DX005 (ip), vehicle: saline with Tween-80
[14] = dose: 50.0 mg/kg/injection, schedule: Q01DX009 (ip), vehicle: saline
[15] = dose: 100.0 mg/kg/injection, schedule: Q01DX009 (ip), vehicle: saline

Measured: T/C

N#Cc1cnn(-c2cc(Cl)ccc2Cl)c1N
inactive: dose: 50.0 mg/kg/injection, schedule: Q01DX009 (ip), vehicle: saline with Tween-80 99 % of control and 95 % of control and 98 % of control | dose: 100.0 mg/kg/injection, schedule: Q01DX009 (ip), vehicle: saline with Tween-80 101 % of control and 103 % of control and 92 % of control | dose: 200.0 mg/kg/injection, schedule: Q01DX009 (ip), vehicle: saline with Tween-80 104 % of control and 105 % of control and 123 % of control

FC(F)(F)c1ccccc1NC(=S)SCc1ccc(Cl)cc1
inactive: dose: 50.0 mg/kg/injection, schedule: Q01DX009 (ip), vehicle: suspension in saline 104 % of control | dose: 100.0 mg/kg/injection, schedule: Q01DX009 (ip), vehicle: suspension in saline 101 % of control | dose: 200.0 mg/kg/injection, schedule: Q01DX009 (ip), vehicle: suspension in saline 108 % of control

COc1cc(C=NC2CCCCC2)c(Br)c(OC)c1OC
inactive: [1] 107 % of control | [2] 107 % of control | [3] 107 % of control

O=C(NC1COB(c2ccc(Br)cc2)OC1c1ccc([N+](=O)[O-])cc1)C(Cl)Cl (centres undefined)
inactive: [4] 102 % of control | [5] 102 % of control | [6] 103 % of control

COC1OCC(N=[N+]=[N-])C(O)C1O (centres undefined)
inactive: [7] 98 % of control | [8] 102 % of control | [9] 100 % of control | [10] 102 % of control

Cc1cc2nc(CC(=O)c3ccncc3)c(=O)[nH]c2cc1C
inactive: [11] 95 % of control | [12] 87 % of control

O=C(Cc1nc2ccccc2[nH]1)C(F)(F)F
inactive: [1] 104 % of control | [2] 94 % of control | [3] 101 % of control

c1cn(C23CC4CC(CC(C4)C2)C3)cn1
inactive: dose: 25.0 mg/kg/injection, schedule: Q01DX001 (ip), vehicle: Klucel (hydroxypropylcellulose) (HPC) 97 % of control

C[C@H]1CC[C@@H]2O[C@@]23C(=O)OC2OC(C)(C)[C@@H]([C@H]2O)[C@]13C
inactive: dose: 50.0 mg/kg/injection, schedule: Q01DX005 (ip), vehicle: Klucel (hydroxypropylcellulose) (HPC) 102 % of control | dose: 100.0 mg/kg/injection, schedule: Q01DX005 (ip), vehicle: Klucel (hydroxypropylcellulose) (HPC) 96 % of control | dose: 200.0 mg/kg/injection, schedule: Q01DX005 (ip), vehicle: Klucel (hydroxypropylcellulose) (HPC) 107 % of control

CSc1nc2c(=S)[nH]c(=S)[nH]c2s1
inactive: dose: 100.0 mg/kg/injection, schedule: Q04DX002 (ip), vehicle: Klucel (hydroxypropylcellulose) (HPC) 101 % of control | dose: 200.0 mg/kg/injection, schedule: Q04DX002 (ip), vehicle: Klucel (hydroxypropylcellulose) (HPC) 100 % of control | dose: 400.0 mg/kg/injection, schedule: Q04DX002 (ip), vehicle: Klucel (hydroxypropylcellulose) (HPC) 100 % of control

CCC1(CC)C(=O)C(CC)(CC)C1=O
inactive: [11] 104 % of control | [12] 110 % of control | [13] 110 % of control

CCOP(=O)(O)SP(=O)(O)OCC
inactive: dose: 25.0 mg/kg/injection, schedule: Q01DX001 (ip), vehicle: saline 100 % of control | dose: 50.0 mg/kg/injection, schedule: Q01DX001 (ip), vehicle: saline 102 % of control | dose: 100.0 mg/kg/injection, schedule: Q01DX001 (ip), vehicle: saline 102 % of control and 100 % of control | dose: 200.0 mg/kg/injection, schedule: Q01DX001 (ip), vehicle: saline 101 % of control | dose: 400.0 mg/kg/injection, schedule: Q01DX001 (ip), vehicle: saline 101 % of control

COc1ccc(SS(=O)c2ccc(C)cc2)cc1 (centres undefined)
inactive: dose: 100.0 mg/kg/injection, schedule: Q01DX001 (ip), vehicle: other 105 % of control | dose: 200.0 mg/kg/injection, schedule: Q01DX001 (ip), vehicle: other 106 % of control | dose: 400.0 mg/kg/injection, schedule: Q01DX001 (ip), vehicle: other 111 % of control

Nc1ncc[nH]c1=O
inactive: [14] 100 % of control | [15] 97 % of control

CNC(=O)NC(c1ccc(F)cc1)c1cc2c(cc1O)OCO2 (centres undefined)
inactive: [4] 96 % of control | [5] 96 % of control | [6] 87 % of control

CCOC(=O)CC1CCCN1 (centres undefined)
inactive: [7] 110 % of control | [8] 101 % of control | [9] 97 % of control | [10] 106 % of control

CC(C)=CC(=O)OCCN(C)C
inactive: [14] 109 % of control | [15] 93 % of control | dose: 200.0 mg/kg/injection, schedule: Q01DX009 (ip), vehicle: saline 93 % of control

Cc1ccc(S(=O)(=O)N/N=C/c2ccoc2)cc1
inactive: dose: 12.5 mg/kg/injection, schedule: Q01DX005 (ip), vehicle: distilled water + Tween-80 100 % of control | dose: 25.0 mg/kg/injection, schedule: Q01DX005 (ip), vehicle: distilled water + Tween-80 102 % of control | dose: 50.0 mg/kg/injection, schedule: Q01DX005 (ip), vehicle: distilled water + Tween-80 93 % of control | dose: 100.0 mg/kg/injection, schedule: Q01DX005 (ip), vehicle: distilled water + Tween-80 102 % of control | dose: 200.0 mg/kg/injection, schedule: Q01DX005 (ip), vehicle: distilled water + Tween-80 100 % of control

C=C1C(=O)OC2CC1C(OC(C)=O)C/C(C)=C/CC/C(C)=C\CCC2(C)O (centres undefined)
inactive: dose: 5.0 mg/kg/injection, schedule: Q01DX009 (ip), vehicle: Klucel (hydroxypropylcellulose) (HPC) 107 % of control | dose: 8.0 mg/kg/injection, schedule: Q01DX009 (ip), vehicle: Klucel (hydroxypropylcellulose) (HPC) 103 % of control | dose: 10.0 mg/kg/injection, schedule: Q01DX009 (ip), vehicle: Klucel (hydroxypropylcellulose) (HPC) 109 % of control | dose: 16.0 mg/kg/injection, schedule: Q01DX009 (ip), vehicle: Klucel (hydroxypropylcellulose) (HPC) 95 % of control | dose: 20.0 mg/kg/injection, schedule: Q01DX009 (ip), vehicle: Klucel (hydroxypropylcellulose) (HPC) 116 % of control | dose: 25.0 mg/kg/injection, schedule: Q04DX002 (ip), vehicle: saline 100 % of control | dose: 32.0 mg/kg/injection, schedule: Q01DX009 (ip), vehicle: Klucel (hydroxypropylcellulose) (HPC) 106 % of control | dose: 40.0 mg/kg/injection, schedule: Q01DX009 (ip), vehicle: Klucel (hydroxypropylcellulose) (HPC) 117 % of control | dose: 50.0 mg/kg/injection, schedule: Q04DX002 (ip), vehicle: saline 94 % of control | dose: 64.0 mg/kg/injection, schedule: Q01DX009 (ip), vehicle: Klucel (hydroxypropylcellulose) (HPC) 106 % of control | dose: 100.0 mg/kg/injection, schedule: Q04DX002 (ip), vehicle: saline 103 % of control | dose: 200.0 mg/kg/injection, schedule: Q04DX002 (ip), vehicle: saline 103 % of control

CC1=C(C(=O)Nc2ccccc2)C(c2ccccc2F)C(C(=O)Nc2ccccc2)=C(C)N1
inactive: dose: 100.0 mg/kg/injection, schedule: Q04DX002 (ip), vehicle: saline with Tween-80 100 % of control | dose: 200.0 mg/kg/injection, schedule: Q04DX002 (ip), vehicle: saline with Tween-80 100 % of control | dose: 400.0 mg/kg/injection, schedule: Q04DX002 (ip), vehicle: saline with Tween-80 91 % of control

C/C(=N\NC(=S)N(C)C)c1cnccn1
inactive: dose: 12.5 mg/kg/injection, schedule: Q01DX005 (ip), vehicle: saline with Tween-80 102 % of control | dose: 25.0 mg/kg/injection, schedule: Q01DX005 (ip), vehicle: saline with Tween-80 100 % of control | dose: 50.0 mg/kg/injection, schedule: Q01DX005 (ip), vehicle: saline with Tween-80 98 % of control and 101 % of control

N#Cc1ccc[n+](Cc2c(Cl)cccc2Cl)c1
inactive: dose: 6.25 mg/kg/injection, schedule: Q01DX009 (ip), vehicle: saline 121 % of control | dose: 12.5 mg/kg/injection, schedule: Q01DX009 (ip), vehicle: saline 108 % of control and 112 % of control | dose: 25.0 mg/kg/injection, schedule: Q01DX009 (ip), vehicle: saline 101 % of control and 115 % of control | [14] 110 % of control and 97 % of control

CCOc1ccc(NC(=O)OCc2c3ccccc3cc3ccccc23)cc1
inactive: dose: 50.0 mg/kg/injection, schedule: Q01DX009 (ip), vehicle: Klucel (hydroxypropylcellulose) (HPC) 100 % of control | dose: 100.0 mg/kg/injection, schedule: Q01DX009 (ip), vehicle: Klucel (hydroxypropylcellulose) (HPC) 96 % of control | dose: 200.0 mg/kg/injection, schedule: Q01DX009 (ip), vehicle: Klucel (hydroxypropylcellulose) (HPC) 105 % of control

O=C1CC2(CCc3ccccc32)C(=O)N1CN1CCOCC1 (centres undefined)
inactive: [11] 100 % of control | [12] 104 % of control | [13] 100 % of control
